Measurements taken from patent publication US5725885A, “Composition for enhanced bioremediation of oil” (BioNutraTech, priority 1995, dated 1998).

What was measured:
Mysidopsis bahia = experiment: 48 hour acute static renewal toxicity bioassay, Mysidopsis bahia (E.P.A./600/4-85/013); type: in vivo; conditions: EPA Probit Analysis
Experimental: (§1) A nutrient mixture and coating were prepared as described in example 1. The toxicity of the product as expressed by reduced survival of organisms exposed to various dilutions of the product was determined through a 48 hour acute static renewal bioassay using Mysidopsis bahia and Cyprinodon variegatus. E.P.A./600/4-85/013 test protocol was followed. All organisms were maintained at room temperature with a light/dark cycle of 16/8. Dilution water was made from Tropic Marine Synthetic Sea Salt and was aerated for 24 hours before use in the test. The test was performed in 600 ml polypropylene diSPo beakers rinsed in the dilution water. Ten organisms of Mysidopsis bahia were placed in 200 ml of dilution water making a 5 cm depth. Ten organisms of Cyprinodon variegatus were placed in 500 ml of dilution water making a 9.5 cm depth.
(§2) Dissolved oxygen, pH, conductivity and salinity, alkalinity and hardness were measured before water renewal. CdCl supplied by the E.P.A. was used as the reference toxicant for both of the Mysidopsis and Cyprinodon organisms. Both the Mysidopsis and the Cyprinodons used in this test were obtained from Aquatox, Inc., and were approximately 27 days old at the time of testing. Both batches of organisms were acclimated to the proper salinity, by adding 300 ml of synthetic, fresh water, every hour until test initiation. […]

Cyprinodon variegatus = experiment: 48 hour acute static renewal toxicity bioassay, Cyprinodon variegatus (E.P.A./600/4-85/013); type: in vivo; conditions: EPA Probit Analysis
Experimental: as §1, §2

SMILES: [Cl][Cd][Cl] [CdCl]
- EC50 (reduced survival), reference toxicant (Mysidopsis bahia): 0.1185 µg/mL
- EC50 (reduced survival), reference toxicant (Cyprinodon variegatus): 7.8237 µg/mL
